The values below come from patent US8557800B2, “Sphingosine kinase inhibitors” (Apogee Biotechnology Corporation, priority 2005, dated 2013).

Structures are written as SMILES.

Usually IC50 stands for the concentration needed to halve the response being measured.

For one assay, the system named is recombinant human SK. Description: Inhibition of recombinant human SK, LC/MS/MS assay. Particulars: 6 μg/ml compound. Type of assay: biochemical. On the procedure:
SK activity is measured by incubation of the recombinant SK with [^3H]sphingosine and 1 mM ATP under defined conditions, followed by extraction of the assay mixture with chloroform:methanol under basic conditions. […] Radioactivity in aliquots of the aqueous phase is then quantified as a measure of [^3H]S1P formation.
In an alternate assay procedure, the recombinant human SK was incubated with unlabeled sphingosine and ATP as described above. After 30 minutes, the reactions were terminated by the addition of acetonitrile to directly extract the newly synthesized S1P. The amount of S1P in the samples is then quantified as follows. C17 base D-erythro-sphingosine and C17 SIP are used as internal standards for sphingosine and S1P, respectively. […] The lipids are then fractionation by High-Performance Liquid Chromatography using a C8-reverse phase column eluted with 1 mM methanolic ammonium formate/2 mM aqueous ammonium formate. […] Calibration curves are generated by plotting the peak area ratios of the synthetic standards for each sphingolipid, and used to determine the normalized amounts of sphingosine and S1P in the samples.
Each Compound of this invention was tested for its ability to inhibit recombinant SK using the LC/MS/MS assay described above.
Take `CN1CCC(NCC23CC4CC(C2)CC(c2ccc(Cl)cc2)(C4)C3)CC1` [Compound 82, [3-(4-Chloro-phenyl)-adamantan-1-ylmethyl]-(1-methyl-piperidin-4-yl)-amine]: the “Recombinant SK (% inhibition)” value is reported as 75%. As to `O=C(NCc1ccncc1)C12CC3CC(C1)CC(c1ccc(F)cc1)(C3)C2` [Compound 61, 3-(4-Fluoro-phenyl)-adamantane-1-carboxylic acid (pyridin-4-ylmethyl)-amide], the “Recombinant SK (% inhibition)” value is recorded as 58%.

With `FC(F)(F)c1ccc(CNCC23CC4CC(C2)CC(c2ccc(Cl)cc2)(C4)C3)cc1` [Compound 77, [3-(4-Chloro-phenyl)-adamantan-1-ylmethyl]-(4-trifluoromethyl-benzyl)-amine], the “Recombinant SK (% inhibition)” value stood at 27%. On the same count and under the same terms, for `Fc1ccc(CNCC23CC4CC(C2)CC(c2ccc(Cl)cc2)(C4)C3)cc1C(F)(F)F` [Compound 79, [3-(4-Chloro-phenyl)-adamantan-1-ylmethyl]-(4-fluoro-3-trifluoromethyl-benzyl)-amine] the value was 19%; for `O=C1CCCN1CCCNC(=O)C12CC3CC(C1)CC(c1ccc(Cl)cc1)(C3)C2` [Compound 55, 3-(4-Chloro-phenyl)-adamantane-1-carboxylic acid [3-(2-oxo-pyrrolidin-1-yl)-propyl]-amide], 8%. Same read-out and setting: for `O=C(NCCCc1ccccc1)C12CC3CC(C1)CC(c1ccc(Cl)cc1)(C3)C2` [Compound 48, 3-(4-Chloro-phenyl)-adamantane-1-carboxylic acid (3-phenyl-propyl)-amide] the value was 36%; for `Clc1ccc(C23CC4CC(CC(CNCCc5cccc(Oc6ccccc6)c5)(C4)C2)C3)cc1` [Compound 81, [3-(4-Chloro-phenyl)-adamantan-1-ylmethyl]-[2-(3-phenoxy-phenyl)-ethyl]-amine], 67%; for `Clc1ccc(C23CC4CC(CC(CNCCCN5CCCC5)(C4)C2)C3)cc1` [Compound 85, [3-(4-Chloro-phenyl)-adamantan-1-ylmethyl]-(3-pyrrolidin-1-yl-propyl)-amine], 0%.

Turning to `CC(C)(C)NCCCNCC12CC3CC(C1)CC(c1ccc(Cl)cc1)(C3)C2` [Compound 84, N-tert-Butyl-N′-[3-(4-chloro-phenyl)-adamantan-1-ylmethyl]-propane-1,3-diamine], the “Recombinant SK (% inhibition)” value is on record as 84%. Same read-out and setting: the same measure for `O=C(NCCCn1ccnc1)C12CC3CC(C1)CC(c1ccc(Cl)cc1)(C3)C2` [Compound 65, 3-(4-Chloro-phenyl)-adamantane-1-carboxylic acid (3-imidazol-1-yl-propyl)-amide]: 3%; for `CC(NC(=O)Nc1ccc(Cl)c(C(F)(F)F)c1)C12CC3CC(CC(c4ccc(Cl)cc4)(C3)C1)C2` (stereo not shown) [Compound 118, 1-{1-[3-(4-Chloro-phenyl)-adamantan-1-yl]-ethyl}-3-(4-chloro-3-trifluoromethyl-phenyl)-urea]: 77%; for `O=C(Nc1nnn[nH]1)C12CC3CC(C1)CC(c1ccc(Cl)cc1)(C3)C2` [Compound 67, 3-(4-Chloro-phenyl)-adamantane-1-carboxylic acid (1H-tetrazol-5-yl)-amide]: 10%.

Another assay concerns MCF-7 human breast adenocarcinoma cells. The experiment in a line: Cytotoxicity, SRB binding assay. Type of assay: cell-based. Particulars: MCF7, inhibition of cell proliferation, 48 h, read-out: MCF-7 IC50. As to the method: To further assess the biological efficacies of the Compounds in intact cells, each Compound was evaluated for cytotoxicity using human cancer cell lines. These experiments followed methods that have been extensively used. Cell lines tested included MCF-7 human breast adenocarcinoma cells and MCF-10A non-transformed human breast epithelial cells. The indicated cell lines were treated with varying doses of the test Compound for 48 h. Cell survival was then determined using the SRB binding assay (Skehan et al., 1990, J Natl Cancer Inst 82: 1107), and the concentration of compound that inhibited proliferation by 50% (the IC50) was calculated. Values (in μM) represent the mean±sd for replicate trials.
Background: The SRB assay estimates cell density from bound dye.
With `O=C(/C=C/c1cc(-c2ccccc2)cs1)C12CC3CC(C1)CC(c1ccc(Cl)cc1)(C3)C2` [Compound 137, 1-[3-(4-Chloro-phenyl)-adamantan-1-yl]-3-(4-phenyl-thiophen-2-yl)-propenone], the half-maximal inhibitory concentration (IC50) came to 9 µM. The same measure, in the same setting: for `O=C(NCc1ccc(C(F)(F)F)cc1F)C12CC3CC(C1)CC(c1ccc(Cl)cc1)(C3)C2` [Compound 19, 3-(4-Chloro-phenyl)-adamantane-1-carboxylic acid 2-fluoro-4-trifluoromethyl-benzylamide] the value was over 108 µM.

For `CCn1c2ccccc2c2cc(CNC(C)C34CC5CC(CC(c6ccc(Cl)cc6)(C5)C3)C4)ccc21` (stereo not shown) [Compound 115, {1-[3-(4-Chloro-phenyl)-adamantan-1-yl]-ethyl}-(9-ethyl-9H-carbazol-3-ylmethyl)-amine], the IC50 stood at 1 µM. Still for that read-out and setting: for `Cc1cc2cc(NC(C)C34CC5CC(CC(c6ccc(Cl)cc6)(C5)C3)C4)ccc2[nH]1` (stereo not shown) [Compound 113, {1-[3-(4-Chloro-phenyl)-adamantan-1-yl]-ethyl}-(2-methyl-1H-indol-5-yl)-amine] the value was 14 µM; for `CC(NCc1ccc(C(C)(C)C)cc1)C12CC3CC(CC(c4ccc(Cl)cc4)(C3)C1)C2` (stereo not shown) [Compound 100, (4-tert-Butyl-benzyl)-{1-[3-(4-chloro-phenyl)-adamantan-1-yl]-ethyl}-amine], 0.3 µM; for `CC(C)NCC12CC3CC(C1)CC(c1ccc(Cl)cc1)(C3)C2` [Compound 75, [3-(4-Chloro-phenyl)-adamantan-1-ylmethyl]-isopropyl-amine], 11 µM. Same read-out and setting: for `CC(NCc1ccccc1)C12CC3CC(CC(c4ccc(Cl)cc4)(C3)C1)C2` (stereo not shown) [Compound 99, Benzyl-{1-[3-(4-chloro-phenyl)-adamantan-1-yl]-ethyl}-amine] the value was 0.7 µM; for `CC(NCCc1ccncc1)C12CC3CC(CC(c4ccc(Cl)cc4)(C3)C1)C2` (stereo not shown) [Compound 111, {1-[3-(4-Chloro-phenyl)-adamantan-1-yl]-ethyl}-(2-pyridin-4-yl-ethyl)-amine], 13 µM; for `CC(Nc1ccccc1)C12CC3CC(CC(c4ccc(F)cc4)(C3)C1)C2` (stereo not shown) [Compound 94, {1-[3-(4-Fluoro-phenyl)-adamantan-1-yl]-ethyl}-phenyl-amine], 0.6 µM. `CC(NCc1ccccc1)C12CC3CC(CC(c4ccccc4)(C3)C1)C2` (stereo not shown) [Compound 97, Benzyl-[1-(3-phenyl-adamantan-1-yl)-ethyl]-amine]: the 50% inhibitory concentration (IC50) was found to be 0.5 µM. On the same count and under the same terms, for `CCn1c2ccccc2c2cc(C(=O)NC(C)C34CC5CC(CC(c6ccc(Cl)cc6)(C5)C3)C4)ccc21` (stereo not shown) [Compound 116, 9-Ethyl-9H-carbazole-3-carboxylic acid {1-[3-(4-chloro-phenyl)-adamantan-1-yl]-ethyl}-amide] the value was 6 µM; for `CC(NCc1cnc[nH]1)C12CC3CC(CC(c4ccc(Cl)cc4)(C3)C1)C2` (stereo not shown) [Compound 112, {1-[3-(4-Chloro-phenyl)-adamantan-1-yl]-ethyl}-(3H-imidazol-4-ylmethyl)-amine], 5 µM; for `CC(NN1CCN(C)CC1)C12CC3CC(CC(c4ccc(Cl)cc4)(C3)C1)C2` (stereo not shown) [Compound 108, {1-[3-(4-Chloro-phenyl)-adamantan-1-yl]-ethyl}-(4-methyl-piperazin-1-yl)-amine], 5 µM. As to `CC(NCc1ccccc1)C12CC3CC(CC(c4ccc(F)cc4)(C3)C1)C2` (stereo not shown) [Compound 98, Benzyl-{1-[3-(4-fluoro-phenyl)-adamantan-1-yl]-ethyl}-amine], the IC50 stood at 3 µM. Still for that read-out and setting: the same measure for `CC(NC(C)C12CC3CC(CC(c4ccc(Cl)cc4)(C3)C1)C2)c1ccc(Br)cc1` (stereo not shown) [Compound 101, [1-(4-Bromo-phenyl)-ethyl]-{1-[3-(4-chloro-phenyl)-adamantan-1-yl]-ethyl}-amine]: 10 µM; for `CC(NCc1cc(-c2ccccc2)cs1)C12CC3CC(CC(c4ccc(Cl)cc4)(C3)C1)C2` (stereo not shown) [Compound 120, {1-[3-(4-Chloro-phenyl)-adamantan-1-yl]-ethyl}-(4-phenyl-thiophen-2-ylmethyl)-amine]: 108 µM. Still for that read-out and setting: for `CC(NCc1ccncc1)C12CC3CC(CC(c4ccccc4)(C3)C1)C2` (stereo not shown) [Compound 109, [1-(3-Phenyl-adamantan-1-yl)-ethyl]-pyridin-4-ylmethyl-amine] the value was 26 µM; for `O=C(NCc1cccc(C(F)(F)F)c1)C12CC3CC(C1)CC(c1ccc(Cl)cc1)(C3)C2` [Compound 15, 3-(4-Chloro-phenyl)-adamantane-1-carboxylic acid 3-trifluoromethyl-benzylamide], over 112 µM. The same measure, in the same setting: for `CC(NC(=O)Nc1ccc(Cl)c(C(F)(F)F)c1)C12CC3CC(CC(c4ccc(Cl)cc4)(C3)C1)C2` (stereo not shown) [Compound 117, 1-{1-[3-(4-Chloro-phenyl)-adamantan-1-yl]-ethyl}-3-(4-chloro-3-trifluoromethyl-phenyl)-urea] the value was 3 µM; for `CC(NCc1cc(Br)cs1)C12CC3CC(CC(c4ccc(Cl)cc4)(C3)C1)C2` (stereo not shown) [Compound 119, (4-Bromo-thiophen-2-ylmethyl)-{1-[3-(4-chloro-phenyl)-adamantan-1-yl]-ethyl}-amine], 11 µM. Take `CC(NCc1ccc(Cl)nc1)C12CC3CC(CC(c4ccc(Cl)cc4)(C3)C1)C2` (stereo not shown) [Compound 110, {1-[3-(4-Chloro-phenyl)-adamantan-1-yl]-ethyl}-(6-chloro-pyridin-3-ylmethyl)-amine]: the IC50 worked out at 6 µM. Consider `CC(NCCc1ccc(Br)cc1)C12CC3CC(CC(C3)C1)C2` (stereo not shown) [Compound 102, (1-Adamantan-1-yl-ethyl)-[2-(4-bromo-phenyl)-ethyl]-amine], for which the concentration for half-maximal inhibition (IC50) came out at 2 µM.
